Drawing on patent US8916702B2 (priority 2012, dated 2014), this text covers EC50 for 33 compounds.

In general, EC50 refers to the concentration needed to bring the measured effect to its halfway point.

The test system of one test is HCV pseudoparticles (genotype 1a HCV E1 and E2 envelope, H77C isolate). As to the kind of experiment: microbe, parasite or virus in culture. Conditions: Hepatitis C virus, GETYPE1A, Huh-7, 48 h, read-out: Activity (EC50 class), HCV pseudoparticle infection of Huh7 cells, luciferase 2 days after infection; EC50 expressed as class A/B. The class given is cell-based.
Regarding `CC(C)(CNC(=O)C(=O)NCC1CC1)CNC(=O)c1ccc(Nc2nc(NC3(c4ccc(Cl)cc4)CC3)nc(OCC(F)(F)F)n2)cc1` [Compound 1032], the EC50 is 0.01 to 10 nM.

Staying with this test, now noted: Hepatitis C virus, Huh-7, 48 h, HCV pseudoparticle infection of Huh7 cells, luciferase 2 days after infection; average of duplicates.
The compound `CCOC(=O)[C@H](CNC(=O)C(N)=O)NC(=O)c1ccc(Nc2nc(NC3(c4ccc(Cl)cc4)CC3)nc(OCC(F)(F)F)n2)cc1` [Compound 1025, (S)-ethyl 3-(2-amino-2-oxoacetamido)-2-(4-(4-(1-(4-chlorophenyl)cyclopropylamino)-6-(2,2,2-trifluoroethoxy)-1,3,5-triazin-2-ylamino)benzamido)propanoate] came in with an EC50 of 1.73 nM.
Regarding `CCOC(=O)[C@H](CCNC(=O)C(=O)N(C)C)NC(=O)c1ccc(Nc2nc(NC3(c4ccc(Cl)cc4)CC3)nc(OCC(F)(F)F)n2)cc1` [Compound 1026, (S)-ethyl 2-(4-(4-(1-(4-chlorophenyl)cyclopropylamino)-6-(2,2,2-trifluoroethoxy)-1,3,5-triazin-2-ylamino)benzamido)-4-(2-(dimethylamino)-2-oxoacetamido)butanoate], the EC50 amounted to 2.68 nM.
Still for that read-out and setting: for `CCOC(=O)[C@H](CCNC(=O)C(N)=O)NC(=O)c1ccc(Nc2nc(NC3(c4ccc(Cl)cc4)CC3)nc(OCC(F)(F)F)n2)cc1` [Compound 1028, (S)-ethyl 4-(2-amino-2-oxoacetamido)-2-(4-(4-(1-(4-chlorophenyl)cyclopropylamino)-6-(2,2,2-trifluoroethoxy)-1,3,5-triazin-2-ylamino)benzamido)butanoate] the value was 0.4 nM; for `CC(C)(CNC(=O)C(=O)Nc1ccccc1)CNC(=O)c1ccc(Nc2nc(NC3(c4ccc(Cl)cc4)CC3)nc(OCC(F)(F)F)n2)cc1` [Compound 1035, N1-(3-(4-(4-(1-(4-chlorophenyl)cyclopropylamino)-6-(2,2,2-trifluoroethoxy)-1,3,5-triazin-2-ylamino)benzamido)-2,2-dimethylpropyl)-N2-phenyloxalamide], 0.03 nM; for `COC(=O)[C@H](CNC(=O)C(=O)NC(C1CC1)C1CC1)NC(=O)c1ccc(Nc2nc(NC3(c4ccc(Cl)cc4)CC3)nc(OCC(F)(F)F)n2)cc1` [Compound 1055], 2.41 nM.
On the same count and under the same terms, the same measure for `COC(=O)[C@H](CNC(=O)C(=O)NC1(CC(C)C)CC1)NC(=O)c1ccc(Nc2nc(NC3(c4ccc(Cl)cc4)CC3)nc(OCC(F)(F)F)n2)cc1` [Compound 1058]: 1.15 nM.

Staying with this test, now noted: Hepatitis C virus, Huh-7, 48 h, read-out: Activity (EC50 class), HCV pseudoparticle infection of Huh7 cells, luciferase 2 days after infection; EC50 expressed as class A/B.
As to `CN(C)C(=O)C(=O)NC[C@H](NC(=O)c1ccc(Nc2nc(NC3(c4ccc(Cl)cc4)CC3)nc(OCC(F)(F)F)n2)cc1)C(=O)OCCOCCO` [Compound 1023, (S)-2-(2-hydroxyethoxy)ethyl 2-(4-(4-(1-(4-chlorophenyl)cyclopropylamino)-6-(2,2,2-trifluoroethoxy)-1,3,5-triazin-2-ylamino)benzamido)-3-(2-(dimethylamino)-2-oxoacetamido)propanoate], the EC50 lay in the range of 0.01 to 10 nM.
Take `CCOC(=O)[C@H](CNC(=O)C(=O)NC)NC(=O)c1ccc(Nc2nc(NC3(c4ccc(Cl)cc4)CC3)nc(OCC(F)(F)F)n2)cc1` [Compound 1024, (S)-ethyl 2-(4-(4-(1-(4-chlorophenyl)cyclopropylamino)-6-(2,2,2-trifluoroethoxy)-1,3,5-triazin-2-ylamino)benzamido)-3-(2-(methylamino)-2-oxoacetamido)propanoate]: the EC50 fell in the range of 0.01 to 10 nM.
On the same count and under the same terms, for `CCOC(=O)[C@H](CNC(=O)C(N)=O)NC(=O)c1ccc(Nc2nc(NC3(c4ccc(Cl)cc4)CC3)nc(OCC(F)(F)F)n2)cc1` [Compound 1025, (S)-ethyl 3-(2-amino-2-oxoacetamido)-2-(4-(4-(1-(4-chlorophenyl)cyclopropylamino)-6-(2,2,2-trifluoroethoxy)-1,3,5-triazin-2-ylamino)benzamido)propanoate] the value was 0.01 to 10 nM.
With `CCOC(=O)[C@H](CCNC(=O)C(=O)N(C)C)NC(=O)c1ccc(Nc2nc(NC3(c4ccc(Cl)cc4)CC3)nc(OCC(F)(F)F)n2)cc1` [Compound 1026, (S)-ethyl 2-(4-(4-(1-(4-chlorophenyl)cyclopropylamino)-6-(2,2,2-trifluoroethoxy)-1,3,5-triazin-2-ylamino)benzamido)-4-(2-(dimethylamino)-2-oxoacetamido)butanoate], the EC50 lay within 0.01 to 10 nM.
The same measure, in the same setting: for `CCOC(=O)[C@H](CCNC(=O)C(=O)NC)NC(=O)c1ccc(Nc2nc(NC3(c4ccc(Cl)cc4)CC3)nc(OCC(F)(F)F)n2)cc1` [Compound 1027, (S)-ethyl 2-(4-(4-(1-(4-chlorophenyl)cyclopropylamino)-6-(2,2,2-trifluoroethoxy)-1,3,5-triazin-2-ylamino)benzamido)-4-(2-(methylamino)-2-oxoacetamido)butanoate] the value was 0.01 to 10 nM; for `CCOC(=O)[C@H](CCNC(=O)C(N)=O)NC(=O)c1ccc(Nc2nc(NC3(c4ccc(Cl)cc4)CC3)nc(OCC(F)(F)F)n2)cc1` [Compound 1028, (S)-ethyl 4-(2-amino-2-oxoacetamido)-2-(4-(4-(1-(4-chlorophenyl)cyclopropylamino)-6-(2,2,2-trifluoroethoxy)-1,3,5-triazin-2-ylamino)benzamido)butanoate], 0.01 to 10 nM; for `CCOC(=O)[C@H](CCCNC(=O)C(N)=O)NC(=O)c1ccc(Nc2nc(NC3(c4ccc(Cl)cc4)CC3)nc(OCC(F)(F)F)n2)cc1` [Compound 1029, (S)-ethyl 5-(2-amino-2-oxoacetamido)-2-(4-(4-(1-(4-chlorophenyl)cyclopropylamino)-6-(2,2,2-trifluoroethoxy)-1,3,5-triazin-2-ylamino)benzamido)pentanoate], 0.01 to 10 nM.
The same measure, in the same setting: for `CCOC(=O)[C@H](CCCNC(=O)C(=O)NC)NC(=O)c1ccc(Nc2nc(NC3(c4ccc(Cl)cc4)CC3)nc(OCC(F)(F)F)n2)cc1` [Compound 1030, (S)-ethyl 2-(4-(4-(1-(4-chlorophenyl)cyclopropylamino)-6-(2,2,2-trifluoroethoxy)-1,3,5-triazin-2-ylamino)benzamido)-5-(2-(methylamino)-2-oxoacetamido)pentanoate] the value was 0.01 to 10 nM; for `CCOC(=O)[C@H](CCCNC(=O)C(=O)N(C)C)NC(=O)c1ccc(Nc2nc(NC3(c4ccc(Cl)cc4)CC3)nc(OCC(F)(F)F)n2)cc1` [Compound 1031, (S)-ethyl 2-(4-(4-(1-(4-chlorophenyl)cyclopropylamino)-6-(2,2,2-trifluoroethoxy)-1,3,5-triazin-2-ylamino)benzamido)-5-(2-(dimethylamino)-2-oxoacetamido)pentanoate], 0.01 to 10 nM; for `CC(C)(CNC(=O)C(=O)NC1CCCCCC1)CNC(=O)c1ccc(Nc2nc(NC3(c4ccc(Cl)cc4)CC3)nc(OCC(F)(F)F)n2)cc1` [Compound 1033, N1-(3-(4-(4-(1-(4-chlorophenyl)cyclopropylamino)-6-(2,2,2-trifluoroethoxy)-1,3,5-triazin-2-ylamino)benzamido)-2,2-dimethylpropyl)-N2-cycloheptyloxalamide], 0.01 to 10 nM.
In the case of `CC(C)(CNC(=O)C(=O)NCc1ccc(F)cc1F)CNC(=O)c1ccc(Nc2nc(NC3(c4ccc(Cl)cc4)CC3)nc(OCC(F)(F)F)n2)cc1` [Compound 1034, N1-(3-(4-(4-(1-(4-chlorophenyl)cyclopropylamino)-6-(2,2,2-trifluoroethoxy)-1,3,5-triazin-2-ylamino)benzamido)-2,2-dimethylpropyl)-N2-(2,4-difluorobenzyl)oxalamide], the EC50 lay within 0.01 to 10 nM.
Consider `CC(C)(CNC(=O)C(=O)NCC1(CN2CCCC2)CC1)CNC(=O)c1ccc(Nc2nc(NC3(c4ccc(Cl)cc4)CC3)nc(OCC(F)(F)F)n2)cc1` [Compound 1036], for which the EC50 lay in the range of 0.01 to 10 nM.
Take `O=C(NC[C@H](NC(=O)c1ccc(Nc2nc(NC3(c4ccc(Cl)cc4)CC3)nc(OCC(F)(F)F)n2)cc1)C(=O)O)C(=O)NC1CCCC1` [Compound 1037]: the EC50 is 0.01 to 10 nM.
In the case of `O=C(NCC1CCCCC1)C(=O)NC[C@@H](NC(=O)c1ccc(Nc2nc(NC3(c4ccc(Cl)cc4)CC3)nc(OCC(F)(F)F)n2)cc1)C(=O)O` [Compound 1039], the EC50 was in the range of 0.01 to 10 nM.
For `CN1CCCC1CCNC(=O)C(=O)NC[C@H](NC(=O)c1ccc(Nc2nc(NC3(c4ccc(Cl)cc4)CC3)nc(OCC(F)(F)F)n2)cc1)C(=O)O` (some centres unmarked) [Compound 1040], the EC50 was 10 to 1000 nM.
Same read-out and setting: for `O=C(NCC1CCCO1)C(=O)NC[C@@H](NC(=O)c1ccc(Nc2nc(NC3(c4ccc(Cl)cc4)CC3)nc(OCC(F)(F)F)n2)cc1)C(=O)O` (some centres unmarked) [Compound 1042] the value was 0.01 to 10 nM; for `O=C(NCc1cccnc1)C(=O)NC[C@@H](NC(=O)c1ccc(Nc2nc(NC3(c4ccc(Cl)cc4)CC3)nc(OCC(F)(F)F)n2)cc1)C(=O)O` [Compound 1043], 0.01 to 10 nM.
The same measure, in the same setting: for `CCC(C)CNC(=O)C(=O)NC[C@@H](NC(=O)c1ccc(Nc2nc(NC3(c4ccc(Cl)cc4)CC3)nc(OCC(F)(F)F)n2)cc1)C(=O)O` (some centres unmarked) [Compound 1044] the value was 0.01 to 10 nM; for `CN(C)CCNC(=O)C(=O)NC[C@@H](NC(=O)c1ccc(Nc2nc(NC3(c4ccc(Cl)cc4)CC3)nc(OCC(F)(F)F)n2)cc1)C(=O)O` [Compound 1045], 0.01 to 10 nM; for `COCCNC(=O)C(=O)NC[C@H](NC(=O)c1ccc(Nc2nc(NC3(c4ccc(Cl)cc4)CC3)nc(OCC(F)(F)F)n2)cc1)C(=O)O` [Compound 1046], 0.01 to 10 nM.
On the same count and under the same terms, the same measure for `COC(=O)C(CNC(=O)C(=O)NC1CC(C)(C)CC(C)(C)C1)NC(=O)c1ccc(Nc2nc(NC3(c4ccc(Cl)cc4)CC3)nc(OCC(F)(F)F)n2)cc1` (centres unmarked) [Compound 1047]: 0.01 to 10 nM; for `COC(=O)C(CNC(=O)C(=O)NC1CCC(O)CC1)NC(=O)c1ccc(Nc2nc(NC3(c4ccc(Cl)cc4)CC3)nc(OCC(F)(F)F)n2)cc1` (centres unmarked) [Compound 1048]: 0.01 to 10 nM.
On to `COC(=O)C(CNC(=O)C(=O)NC1CCN(C(=O)OC(C)(C)C)CC1)NC(=O)c1ccc(Nc2nc(NC3(c4ccc(Cl)cc4)CC3)nc(OCC(F)(F)F)n2)cc1` (centres unmarked) [Compound 1049], for which the EC50 is 0.01 to 10 nM.
Still for that read-out and setting: for `COC(=O)[C@H](CNC(=O)C(=O)N[C@@H]1C[C@@H]2CC[C@H]1C2)NC(=O)c1ccc(Nc2nc(NC3(c4ccc(Cl)cc4)CC3)nc(OCC(F)(F)F)n2)cc1` [Compound 1050] the value was 0.01 to 10 nM; for `COC(=O)[C@H](CNC(=O)C(=O)NC1CCCCC1O)NC(=O)c1ccc(Nc2nc(NC3(c4ccc(Cl)cc4)CC3)nc(OCC(F)(F)F)n2)cc1` (some centres unmarked) [Compound 1051], 0.01 to 10 nM; for `COC(=O)C(CNC(=O)C(=O)NC1CCCC(NC(=O)OC(C)(C)C)C1)NC(=O)c1ccc(Nc2nc(NC3(c4ccc(Cl)cc4)CC3)nc(OCC(F)(F)F)n2)cc1` (centres unmarked) [Compound 1053], 0.01 to 10 nM.
Same read-out and setting: the same measure for `COC(=O)[C@H](CNC(=O)C(=O)N[C@H]1C[C@H]2C3C2[C@]31C)NC(=O)c1ccc(Nc2nc(NC3(c4ccc(Cl)cc4)CC3)nc(OCC(F)(F)F)n2)cc1` (some centres unmarked) [Compound 1054]: 0.01 to 10 nM; for `COC(=O)[C@H](CNC(=O)C(=O)NC(C1CC1)C1CC1)NC(=O)c1ccc(Nc2nc(NC3(c4ccc(Cl)cc4)CC3)nc(OCC(F)(F)F)n2)cc1` [Compound 1055]: 0.01 to 10 nM; for `COC(=O)[C@H](CNC(=O)C(=O)NC1CCCC(O)C1)NC(=O)c1ccc(Nc2nc(NC3(c4ccc(Cl)cc4)CC3)nc(OCC(F)(F)F)n2)cc1` (some centres unmarked) [Compound 1056]: 0.01 to 10 nM.
As for `COC(=O)[C@H](CNC(=O)C(=O)NC1CCC(F)(F)CC1)NC(=O)c1ccc(Nc2nc(NC3(c4ccc(Cl)cc4)CC3)nc(OCC(F)(F)F)n2)cc1` [Compound 1057], the EC50 fell in the range of 0.01 to 10 nM.
Take `COC(=O)[C@H](CNC(=O)C(=O)NC1(CC(C)C)CC1)NC(=O)c1ccc(Nc2nc(NC3(c4ccc(Cl)cc4)CC3)nc(OCC(F)(F)F)n2)cc1` [Compound 1058]: the 50% effective concentration (EC50) lay in the range of 0.01 to 10 nM.
